From patent EP4371586B1, “MULTIFUNCTIONAL CHITOSAN COMPOSITES FOR BONE DEFECT FILLING AND BONE TISSUE REGENERATION AND METHODS FOR OBTAINING THEM” (Siec Badawcza Lukasiewicz - Instytut Ceramiki i Materialow …, priority 2022, dated 2024)
Ends that are not written are not given here. Peptide text beside a SMILES is read from it.

Experiments:
[1] = system: Staphylococcus aureus PCM 2602; assay: MIC by microdilution method (CLSI M07-A9); format: cell-based; conditions: 24 hours at 37 °C, BHI medium, range 3.125 - 250 µg/ml
Method: The antimicrobial properties of the peptide were tested based on Clinical and Laboratory Standards Institute (CLSI) guidelines according to CLSI M07-A9 2012 using the microdilution method. Two bacterial pathogens were used for the study: Gram-positive Staphylococcus aureus PCM 2602 and Gram-negative Pseudomonas aeruginosa PCM 2563.
The bacterial inoculum for the experiment was prepared by direct inoculation of Brain-Heart Infusion medium (BHI) with bacteria from a 24-hour culture on solid medium. The density of the suspension was 0.5 on the McFarland scale. The peptide concentration analysed : 3.125 - 250 µg/ml . Serial dilutions were performed in a 96-well, flat-bottomed, hydrophobic cell culture plate using BHI liquid medium. Then the previously prepared bacterial suspension was added. The final number of pathogens in each well was approximately 5 × 10^5 CFU/ml (Colony Forming Units per millilitre). Microplates were incubated for 24 hours at 37 °C under aerobic conditions. The minimum inhibitory concentration (MIC) for a peptide was defined as the lowest concentration of peptide in a well where no bacterial growth was observed. All experiments were performed in triplicate. Table 3. Minimum microbial growth inhibitory concentration values for peptide ug46 against the bacteria S. aureus PCM 2602 and P. aeruginosa PCM 2563.

[2] = system: hFOB human osteoblast cell line; assay: WST-1 proliferation assay of peptides, indirect method per ISO 10993-5; format: cell-based; conditions: % of proliferation of control cells
Method: Cytotoxicity was tested by an indirect method based on the guidelines in ISO 10993- 5 on the hFOB human osteoblast cell line (ATCC) using the LDH assay (Roche). The results presented were averaged from two technical repeats and presented as % relative to control cells treated with 1% Triton X- 100 solution. proliferation was tested by an indirect method based on the guidelines in ISO 10993- 5 on the hFOB human osteoblast cell line (ATCC) using the WST-1 assay (Abcam). The results shown were averaged from two technical repeats and presented as % in relation to control cells cultured without added peptides.
Proliferation and cytotoxicity data were analysed and visualised using GraphPad Prism 8 software (GraphPad Software, USA). Statistical analysis was performed using the Kruskal- Wallis test (p = 0.05). In the next step, the Benjamini, Krieger and Yekutielli multiple comparisons test was performed to control the false discovery rate (p = 0.05). Comparisons were made between results obtained for individual peptide concentrations.

Compound	Minimum inhibitory concentration of microorganisms (MIC) S. aureus PCM 2602 [1] [µg/mL]	proliferation ([2]; any ug1/ug4 peptide concentration (none lower)) [%]	proliferation ([2]; most concentrations of ug1/ug4 peptide)
CC[C@H](C)[C@H](NC(=O)CNC(=O)[C@H](C)NC(=O)[C@H](CCC(N)=O)NC(C)=O)C(=O)N[C@H](C(=O)N[C@H](C(=O)N1CCC[C@H]1C(=O)N[C@@H](CC(C)C)C(=O)NCC(=O)N[C@@H](CC(C)C)C(=O)NCC(=O)N[C@@H](CC(C)C)C(=O)N[C@@H](CC(C)C)C(=O)N[C@@H](CCCCN)C(=O)N[C@@H](CCCNC(=N)N)C(=O)N[C@H](C(=O)N[C@@H](CCCCN)C(=O)N[C@H](C(=O)N[C@@H](CC(C)C)C(=O)N[C@@H](CC(C)C)C(N)=O)[C@@H](C)O)[C@@H](C)CC)C(C)C)C(C)C [ug46] (Ac-QAGIVVPLGLGLLKRIKTLL-NH2)	100		
CPLGLYGFGG [ug4, engineered pro-regenerative peptide]		≥ 70	above 100%
